Counter-ions that a name gives are not always drawn. Like-named read-outs stand apart in the source and are kept apart here.
Experiments:
in vivo = conditions: mouse, intravenous, mice
Description: Three test compounds were introvenously administered to mice (ICR, male, 4 weeks old) to test their acute toxicities.

E. coli NIHJ = experiment: Antibacterial activity (MIC, agar plate, standard method of the Japanese Chemotherapeutic Society); assay type: cell-based; conditions: Escherichia coli, 10^4 cells/plate, 37° C., 20 hours, read-out: MIC
Experimental: (§1) According to the standard method of the Japanese Chemotherapeutic Society [Chemotherapy, Vol. 23, Pages 1-2 (1975)], a culture obtained by cultivating bacteria in Heart Infusion broth (manufactured by Eken Kagakusha) at 37° C. for 20 hours was inoculated into a Heart Infusion agar medium (manufactured by Eiken Kagakusha) and cultivated at 37° C. for 20 hours, after which the growth of bacteria was examined visually. The minimum inhibitory concentration at which the bacterial growth was inhibited was taken as MIC (μg/ml). The amount of the inoculated bacteria was 10^4 cells/plate (10^6 cells/ml).

Pro. morganii T-216 = experiment: Antibacterial activity (MIC, agar plate); assay type: cell-based; conditions: Morganella morganii, T216, 20 h
Experimental: as §1

Al. faecalis B-1 = experiment: Antibacterial activity (MIC, agar plate); assay type: cell-based; conditions: Alcaligenes faecalis
Experimental: as §1

Kl. pneumoniae Y-50 = experiment: Antibacterial activity (MIC, agar plate); assay type: cell-based; conditions: Klebsiella pneumoniae, Y50, 10^4 cells/plate, 37° C., 20 hours, read-out: MIC
Experimental: as §1

Pro. mirabilis T-100 = experiment: Antibacterial activity (MIC, agar plate); assay type: cell-based; conditions: Proteus mirabilis, T100, 10^4 cells/plate, 37° C., 20 hours, read-out: MIC
Experimental: as §1

Ent. cloacae IID977 = experiment: Antibacterial activity (MIC, agar plate); assay type: cell-based; conditions: Enterobacter cloacae, 10^4 cells/plate, 37° C., 20 hours, read-out: MIC
Experimental: as §1

Pro. mirabilis T-111 = experiment: Antibacterial activity (MIC, agar plate); assay type: cell-based; conditions: Proteus mirabilis, T111, 20 h
Experimental: as §1

Aci. calcoaceticus A-6 = experiment: Antibacterial activity (MIC, agar plate); assay type: cell-based; conditions: Acinetobacter calcoaceticus, A6, 10^4 cells/plate, 37° C., 20 hours, read-out: MIC
Experimental: as §1

[1] = test system: Pro. vulgaris GN76 (Cephalosporinase-producing bacteria); experiment: Antibacterial activity (MIC, agar plate); assay type: cell-based; conditions: Proteus vulgaris; Pro. vulgaris GN76 (cephalosporinase-producing); 10^4 cells/plate, 37° C., 20 hours; read-out: MIC
Experimental: as §1

Kl. pneumoniae Y-41 = experiment: Antibacterial activity (MIC, agar plate); assay type: cell-based; conditions: Klebsiella pneumoniae, Y41; Kl. pneumoniae Y-41; 10^4 cells/plate, 37° C., 20 hours; read-out: MIC
Experimental: as §1

Klebsiella spp Y-72 = experiment: Antibacterial activity (MIC, agar plate); assay type: cell-based
Experimental: as §1

Ser. marcescens IID620 = experiment: Antibacterial activity (MIC, agar plate); assay type: cell-based; conditions: Serratia marcescens, IID620, 20 h
Experimental: as §1

[2] = test system: E. coli TK3 (Penicillinase-producing bacteria); experiment: Antibacterial activity (MIC, agar plate); assay type: cell-based; conditions: Escherichia coli; E. coli TK3 (penicillinase-producing); 10^4 cells/plate, 37° C., 20 hours; read-out: MIC
Experimental: as §1

Compound	LD50 (in vivo)	MIC (E. coli NIHJ)	MIC (Pro. morganii T-216)	MIC (Al. faecalis B-1; B1, Al. faecalis B-1, 10^4 cells/plate, 37° C., 20 hours, read-out: MIC)	MIC (Kl. pneumoniae Y-50)	MIC (Pro. mirabilis T-100)	MIC (Ent. cloacae IID977)	MIC (Pro. mirabilis T-111)	MIC (Aci. calcoaceticus A-6)	MIC [1]	MIC (Kl. pneumoniae Y-41)	MIC (Klebsiella spp Y-72; Y72, Klebsiella spp Y-72, 10^4 cells/plate, 37° C., 20 hours, read-out: MIC)	MIC (Ser. marcescens IID620)	MIC [2]	MIC (Al. faecalis B-1; B1, 20 h)	MIC (Klebsiella spp Y-72; Klebsiella, Y72, 20 h)
Cc1nnn(CC2=C(C(=O)O)N3C(=O)C(NC(=O)Cc4csc(N)n4)C3SC2)n1 (stereo not drawn)	> 3000 mg/kg															
CO/N=C(\C(=O)NC1C(=O)N2C(C(=O)O)=C(Cc3ccc(O)cc3)CSC12)c1csc(N)n1 (stereo not drawn) [D, Trifluoroacetic acid salt of 7-[2-(2-aminothiazol-4-yl)-2-(syn)-methoxyiminoacetamido]-3-(4-hydroxybenzyl)-Δ^3-cephem-4-carboxylic acid]		≤ 0.1 µg/mL	0.78 µg/mL	25 µg/mL	0.2 µg/mL	≤ 0.1 µg/mL	25 µg/mL	0.78 µg/mL	6.25 µg/mL	1.56 µg/mL	0.78 µg/mL	6.25 µg/mL	3.13 µg/mL	1.56 µg/mL		
Cc1nnn(CC2=C(C(=O)O)N3C(=O)C(NC(=O)/C(=N\O)c4csc(N)n4)C3SC2)n1 (stereo not drawn) [E, Trifluoroacetic acid salt of 7-[2-(2-aminothiazol-4-yl)-2-(syn)-hydroxyiminoacetamido]-3-(2-(5-methyl-1,2,3,4-tetrazolyl)methyl]-Δ^3-cephem-4-carboxylic acid]		≤ 0.1 µg/mL	≤ 0.1 µg/mL		≤ 0.1 µg/mL	≤ 0.1 µg/mL	6.25 µg/mL	0.39 µg/mL	50 µg/mL	6.25 µg/mL	0.2 µg/mL		3.13 µg/mL	0.78 µg/mL	3.13 µg/mL	3.13 µg/mL

Source: patent US4879381A, “7-(substituted or unsubstituted amino) 3-substituted methyl-^3 cephem-4-carboxylic acid” (Toyoma Chemical Company, Ltd., priority 1980, dated 1989)
